Test results taken from patent US4330550A, “Oxoimidazolinealkanoic acids and their salts and esters, their preparation and pharmaceutical compositions containing them” (A. Nattermann & Cie. GmbH, priority 1979, dated 1982).
Where a name gives a salt, the structure may show the parent alone.

test system: collagen-induced aggregation of platelets (human plasma with a high platelet content); test: Inhibition of collagen-induced aggregation of thrombocytes in vitro (method of Born); assay type: cell-based; conditions: 0.3 μmol/ml
Excerpt: The aggregation of platelets in the presence of the compounds of the invention has been tested by the collagen-induced aggregation method of Born., Nature 4832/927, 29 (1962). The effect of the compounds in inhibiting thrombocyte aggregation was investigated in vitro on human plasma with a high platelet content.
The percentage inhibition of collagen-induced aggregation in vitro by compounds from the Examples indicated in Table 3, or combinations thereof with heparin, at a final concentration of 0.3 or 0.6 μmol of compound per ml of human plasma with a high platelet content, can be seen from the following Table.

Compared with `O=C(O)CCCCCCCn1c(-c2ccccc2)c[nH]c1=O` [Example 1c, sodium salt of 8-(2-oxo-5-phenyl-4-imidazolin-1-yl)-caprylic acid], `O=C(O)CCCCCCn1c(-c2ccccc2)c[nH]c1=O` [Example 2c] is lower in “% inhibition compared with the control (collagen-induced aggregation)” value: 80% for the first, 46% for the second.

In the case of `O=C(O)CCCCCCn1c(-c2ccc(Cl)cc2)c[nH]c1=O` [Example 5c], the “% inhibition compared with the control (collagen-induced aggregation)” value is reported as 63%.
